# “And” between values parts separate entries of the source, which are not always exact repeats. Identical values can stand only once.
# Legend:
# A549 cells = experiment: A549 cell DNA synthesis ([3H]-thymidine); type: cell-based; settings: 5% fetal calf serum, 10 micromolar, [3H]-thymidine 24 hours after addition
# Procedure: A549 cells were maintained in DMEM containing 5% fetal calf serum and undergoing asynchronous proliferation. DNA synthesis was determined by the addition of [3H]-thymidine 24 hours after the addition of one of 2-methoxyestradiol, 6-oxo-2-methoxyestradiol and 2-methoxyestradiol-17β-D-glucuronide.
# [1] = Description: The octanol:water partition co-efficient is a measure of the relative aqueous and lipid solubility of a compound.
# [2] = incubation with rat renal homogenates for 5.5 hours in Tyrodes buffer
# Procedure: (§2) At the end of these incubation periods, extraction was carried out by using 100 μl of reaction mixture with 200 μl of acetontrile (ACN) followed by the addition of 5 μl 2M HCL, vortexing and centrifugation at 1500 g (ambient temperature). Samples of enzyme incubates or quality control incubates were then chilled at −20° C. for at least 10 min, prior to removal of 120 μl of the upper (ACN) phase which is added to 120 μl distilled H2O. One hundred μl of this extract was injected into a Hewlett Packard Series 1050 HPLC fitted with a C18 analytical column (Hypersil ODS 3 μM, 4.6×150 mm) guarded by a pre column (Alltech Hypersil ODS 3 μM; 4.6×7.6 mm) and metabolites were detected with a Hewlett Packard 1046A fluorescence detector (I excitation 270 nm, emission, 320 nm). Metabolites were separated in a mobile phase of ACN buffer of 40:60 (buffer comprised 20 mM NaH2 PO4, 0.02% orthophosphoric acid, pH 3.1–3.2) at a flow rate of 0.7 ml/min. for the first 4 min with a linear gradient to a mobile phase of ACN: buffer (76:24) at 4.5 min. which was maintained for the remainder of the separation (10 min).
# [3] = tested on: Human Airway Smooth Muscle cells; experiment: Human airway smooth muscle cell number; type: cell-based; settings: compound 10 μM
# Description: (§1) Human airway fibroblasts were obtained from volunteers in a follow-up of the Melbourne Epidemiological Survey of Childhood Asthma (MESCA) (Oswald et al., 1994) initially recruited at age 7 in 1965 and now 42 years old. Volunteers underwent bronchial biopsy which provided tissue samples of epithelium and mucosa of approximately 2 mm^3. These specimens were dissected to remove the epithelium and placed in plastic culture plates. Fibroblasts grew by explant culture over a six week period when maintained according to previously described methods (Zhang et al., 1996). Cells were seeded at subconfluent densities onto six cell plates and after 72 hours were rendered quiescent by serum deprivation. Twenty four hours after serum removal, cells were exposed to thrombin (0.3 U/ml) together with a serum-free medium supplement containing insulin, transferrin and selenium. Cells were harvested by incubation with Trypsin (0.5% w/v) for 10 min. or until a single cell suspension was produced. Cell numbers were then determined using a haemocytometer.
# Smooth muscle cells were obtained from airways resected from lung transplant recipients and cultured as previously described in detail (Fernandes et al., 1999). Cell numbers were determined in experiments of the same design as those described for human airway fibroblasts with the additional stimulus of 1% (v/v) fetal calf serum (FCS) being evaluated. In addition, [^3H]-thymidine incorporation was determined between 24 and 28 hours after the addition of thrombin to determine DNA synthesis (Fernandes et al. 1999).
# [4] = target: purified E. Coli-derived β-glucuronidase (Escherichia coli, UniProt P05804); experiment: Susceptibility of 2-MEG to metabolism by E. Coli β-glucuronidase (HPLC); type: in vitro ADME; settings: incubation with E. Coli β-glucuronidase for 16 hours in Tyrodes buffer
# Procedure: as §2
# [5] = tested on: Airway smooth muscle cells; experiment: Shape change of cultured airway smooth muscle cells; type: cell-based, human; settings: 72 hours in culture, 5% FCS, 10 micro M
# [6] = target: T1, estrogen receptor (rat uterine cytosol) (Rattus norvegicus, UniProt P06211)
# T1 sequence (P06211 1-600): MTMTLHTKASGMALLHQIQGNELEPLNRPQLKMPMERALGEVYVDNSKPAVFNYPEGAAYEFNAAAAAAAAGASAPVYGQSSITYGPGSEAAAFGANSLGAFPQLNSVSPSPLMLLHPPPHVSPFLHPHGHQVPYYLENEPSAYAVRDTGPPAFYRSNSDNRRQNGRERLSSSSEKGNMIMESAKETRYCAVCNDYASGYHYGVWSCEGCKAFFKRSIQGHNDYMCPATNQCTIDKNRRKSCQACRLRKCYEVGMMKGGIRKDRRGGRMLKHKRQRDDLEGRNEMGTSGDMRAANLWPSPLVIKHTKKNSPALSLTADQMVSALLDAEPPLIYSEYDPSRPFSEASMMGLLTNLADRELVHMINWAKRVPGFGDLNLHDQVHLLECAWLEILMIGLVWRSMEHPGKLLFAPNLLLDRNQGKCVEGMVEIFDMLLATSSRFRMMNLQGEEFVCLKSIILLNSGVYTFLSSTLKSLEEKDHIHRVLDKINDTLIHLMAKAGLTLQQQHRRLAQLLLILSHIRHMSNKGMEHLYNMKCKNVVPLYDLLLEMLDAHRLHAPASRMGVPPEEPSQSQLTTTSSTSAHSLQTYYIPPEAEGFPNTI
# [7] = target: T1, estrogen receptor (rat uterine cytosol); experiment: biochemical
# Human airway fibroblasts = experiment: Human airway fibroblast cell number (haemocytometer); type: cell-based; settings: stimulus Thrombin (0.3 U/ml), compound 10 μM
# Description: as §1
# Sequence of purified E. Coli-derived β-glucuronidase (P05804 whole entry): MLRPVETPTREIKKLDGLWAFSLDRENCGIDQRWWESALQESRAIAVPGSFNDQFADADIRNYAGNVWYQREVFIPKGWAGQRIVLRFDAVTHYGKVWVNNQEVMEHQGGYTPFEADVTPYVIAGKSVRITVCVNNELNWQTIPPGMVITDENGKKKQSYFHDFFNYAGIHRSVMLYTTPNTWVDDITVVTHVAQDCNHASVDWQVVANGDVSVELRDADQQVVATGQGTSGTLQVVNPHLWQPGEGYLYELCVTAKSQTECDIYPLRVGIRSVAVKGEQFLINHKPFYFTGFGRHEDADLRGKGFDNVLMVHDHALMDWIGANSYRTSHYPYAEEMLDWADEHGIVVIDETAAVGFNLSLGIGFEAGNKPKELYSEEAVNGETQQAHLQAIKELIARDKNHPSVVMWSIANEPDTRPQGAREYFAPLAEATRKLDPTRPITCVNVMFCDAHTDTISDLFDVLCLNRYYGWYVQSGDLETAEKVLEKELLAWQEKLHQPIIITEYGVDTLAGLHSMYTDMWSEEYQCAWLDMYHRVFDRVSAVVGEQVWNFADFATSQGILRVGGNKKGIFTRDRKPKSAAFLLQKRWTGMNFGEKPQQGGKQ
Compound,effect on DNA synthesis (A549 cells),"octanol/water partition coefficient ([1]; 1-octanol/water, fluorescence spectroscopy)",aqueous solubility relative to 2-MEO ([1]; inferred from partition coefficients),logP ([1]; octanol/water),conversion of 2-MEG to 2-MEO [2] [%],"Cell Number (% control) ([3]; stimulus FCS (1%, v/v))",Cell Number (% control) ([3]; stimulus Thrombin (0.3 U/ml)),conversion of 2-MEG to 2-MEO [4] [%],cell shape change [5],"affinity for estrogen receptors relative to 2-MEO (from logIC50 values) ([6]; rat uterine cytosol, [3H]estradiol displacement)",IC50 [7] [nM],Cell Number (% control) (Human airway fibroblasts),displacement of [3H]estradiol at highest concentration ([6]; 10 μM displacer)
"COc1cc2c(cc1O)CC[C@@H]1[C@@H]2CC[C@]2(C)[C@@H](O[C@@H]3O[C@H](C(=O)O)[C@@H](O)[C@H](O)[C@H]3O)CC[C@@H]12 [2-MEG, 2-Methoxyestradiol-17-b-D-glucopyranosiduronic acid]",ineffective,0.372,approximately 25 times,−0.429,~6,"47 ± 16, n = 5 % control","29 ± 8, n = 12 % control",~20,not detected,1/50,,,
"COc1cc2c(cc1O)CCC1C2CCC2(C)C(O)CCC12 (stereo not drawn) [2-MEO, 1,3,5(10)-estratriene-3,17βdiol 2 methyl ether, reference compound]",reduce DNA synthesis significantly,,,,,"25 ± 9, n = 5 % control","14 ± 12, n = 10 % control",,readily discernible shape change,,~100,"12±8 % control and 12 ± 8, n = 7 % control",incomplete response
"COc1cc2c(cc1O)C(=O)C[C@@H]1[C@@H]2CC[C@]2(C)[C@@H](O)CC[C@@H]12 [6-oxo-2-methoxyestradiol, 6-Oxo-2-methoxyestradiol]",reduce DNA synthesis significantly,,,,,,,,,,,,

# — patent US7037907B1 (The University of Melbourne, priority 1999, dated 2006)
